The values below come from patent US5571789A (Haemopep Pharma GmbH, priority 1992, dated 1996).

“Also recorded” adds a separate entry of the source.

In series [1] the test system is broncho-constriction caused by inhalation of acetylcholin. The experiment in a line: Forced expiration (spirography, flow-volume curve) at the end of inhalatory acetylcholin provocation in rats under i.v. infusion. It is filed as in vivo, wistar rats. The procedure: (§1) A total of 33 female 12 week wistar rats having body weights of 300 g served as test animals. The design of the study was that of a simple blind approach. On each of the experiment days, animals of the control group and of the verum group were measured.
Employing a test animal body plethysmograph allowed for continuous measurement of the respiration volume (VT), respiration frequency (f), respiration minute volume (MV), resistance of the lung (RL), dynamic compliance (Cdyn), respiration flow (F) and transpulmonary pressure (PTP) of a narcotized, intubated and spontaneously breathing rat. Circulation monitoring was accomplished by EKG recording with evaluation of the heart frequency (HR).
After steady state conditions were attained the initial values of spontaneous respiration were measured first. […] In each case evaluations of the continuously determined spontaneous parameters were made 5 minutes after the beginning of the infusion before an inhalatory acetylcholin (ACh) provocation was made (basic values before Ach provocation).
By means of an injectomar device the test animals were infused 0.5 ml of solution continuously over a total of 10 minutes.
(§2) 5 minutes after the beginning of the infusion each rat was provoked by inhalation of a defined amount of an ACh aerosol. Evaluation of the spontaneous respiration parameters for each animal was performed after a total inhalation volume of 600 ml (values at the end of ACh provocation).
To complete the experiments, a forced expiration was performed on each animal in hyperventilation induced apnea. Flow-volume and flow-time (spirography) relations were recorded. The flow-volume curve allows for the evaluation of peak expiratory flow (=PEF), maximum mid-expiratory flow (=MMEF), and flow at 75, 50, 25, and 10% of the forced vital capacity (e.g. FEF 75). Spirography of rats primarily yields the forced vital capacity (FVC) and the expired volume after 0.05, 0.10, 0.20 and 0.40 seconds as an absolute value in ml (e.g. FEV 0.05) or in percent of FVC (e.g. FEV 0.05%).

Series [2] relates to spontaneous respiration parameters (F, PTP, VT, Cdyn, RL, f, MV). The experiment in a line: Spontaneous respiration parameters by body plethysmograph in narcotized rats. In kind it is in vivo, wistar rats. The following applies: for Effect of infusion on spontaneous respiration parameters after ACh provocation: after total inhalation of 600 ml ACh, groups B-D versus control. The procedure:
as §1
After steady state conditions were attained the initial values of spontaneous respiration were measured first. Thereafter, a randomized infusion of placebo, urodilatin, or ANP was started. In each case evaluations of the continuously determined spontaneous parameters were made 5 minutes after the beginning of the infusion before an inhalatory acetylcholin (ACh) provocation was made (basic values before Ach provocation).
as §2

For series [3] the following is noted: cited from earlier work.
Series [4] deals with bronchial asthma (lung function parameters). The experiment in a line: Lung function in patients with bronchial asthma under 40 minute i.v. infusion. In kind it is in vivo, human. The settings on record: for FEV1.0 versus pre values and 20 ng/kg/min group: after 10 minutes of infusion; for PEF, MEF75, MEF50 and MEF25: during infusion; for VCmax versus pre values: during infusion and until 10 minutes thereafter. The text has this: The anamnesis gave no evidence for an exacerbation of the disease in the last 8 weeks. No nicotine abuse was known from any of the patients. Additional inclusion criteria were defined by an expiratory one-second-capacity (FEV1.0) of 40 to 70% of the maximum vital capacity (VCmax) before administration of a broncho-spasmolytic agent, an effect of a β2 -sympathomimetic on FEV1.0 of ≥15%, no alteration of the maintenance antiobstructive treatment and no administration of oral corticoids in the last 4 weeks before the beginning of the study. Within 8 hours before the beginning of the examinations no inhalatory application of a β2 -sympathomimetic must have occurred anymore.

The mark [5] stands for this setting: group B, 40 ng/kg/min i.v. infusion, end of ACh provocation.
Setting [6] is: group B, 40 ng/kg/min, 5 minutes after beginning of infusion, before ACh.

With `CC[C@H](C)[C@@H]1NC(=O)[C@H](CCCNC(=N)N)NC(=O)[C@H](CC(=O)O)NC(=O)[C@H](CCSC)NC(=O)[C@H](CCCNC(=N)N)NC(=O)CNC(=O)CNC(=O)[C@H](Cc2ccccc2)NC(=O)[C@@H](NC(=O)[C@H](CO)NC(=O)[C@H](CO)NC(=O)[C@H](CCCNC(=N)N)NC(=O)[C@H](CCCNC(=N)N)NC(=O)[C@H](CC(C)C)NC(=O)[C@@H](N)CO)CSSC[C@@H](C(=O)N[C@@H](CC(N)=O)C(=O)N[C@@H](CO)C(=O)N[C@@H](Cc2ccccc2)C(=O)N[C@@H](CCCNC(=N)N)C(=O)N[C@@H](Cc2ccc(O)cc2)C(=O)O)NC(=O)CNC(=O)[C@H](CC(C)C)NC(=O)CNC(=O)[C@H](CO)NC(=O)[C@H](CCC(N)=O)NC(=O)[C@H](C)NC(=O)CNC1=O` [ANP, atrial natriuretic peptide, reference compound], the “Effect on the ACh induced changes of the parameters of forced expiration” value in series [1] (70.305 ng/kg/min, equimolar with 80 ng/kg/min urodilatin) is recorded as “less clearly seen”. In series [1] (group D, 70.305 ng/kg/min i.v. infusion (equimolar to group C), end of ACh provocation), the “Flow-volume curve parameters versus control group A” value is “significant increase only of PEF and FEF 75”. Besides, in series [2], the “Effect of infusion on spontaneous respiration parameters after ACh provocation” value is on record as “without a significant effect”. The Hypotensive effect result in series [3] (in vivo, iv) was “hypotensive effect observed”.

`CC(C)(C)NCC(O)c1ccc(O)c(CO)c1` (stereo not shown) [Salbutamol, reference compound]: the FEV1.0 result in series [4] (1.25 mg Salbutamol inhaled, all three groups) is recorded as “significant increase in FEV1.0”. Besides, in series [4] (Salbutamol inhalation, all dosage groups), the “Flow-volume parameters (PEF, MEF75, MEF50, MEF25)” value is listed as “significant effect”.

Regarding urodilatin, in series [1] (40 ng/kg/min versus 70.305 ng/kg/min ANP), the “Protective effect at 40 ng/kg/min versus ANP in a twofold higher dose on a molar basis” value is given as “clearly more effective than ANP; also recorded: more obvious protective effect than ANP”. Also, the “Protection from broncho-constriction (improved forced expiration)” value in series [1] (animal experiments, parenteral administration) was “obvious protection”. Besides, the “Effect compared with equimolar doses of ANP” value in series [1] (broncho-constriction by inhaled acetylcholin, parenteral administration) is on record as “more than two times greater”. Further, in series [1] (setting [5]), the “FEV 0.1% (expired volume after 0.1 seconds based on FVC) versus control group A” value was “significant improvement”; the “PEF, MMEF, FEF 75, FEF 50 and FEF 25 of the forced expiratory flow-volume curve versus control group A” value is given as “clear improvement”. Further, in series [1] (group C, 80 ng/kg/min i.v. infusion, end of ACh provocation), the “PEF, MMEF, FEF 75, FEF 50 and FEF 25 of the forced expiratory flow-volume curve versus control group A” value is “clear improvement”. For the same molecule, the “Effectiveness and duration of action versus ANP (flow-volume curves, FIGS. 1 to 3)” value in series [1] (groups B and C (40, 80 ng/kg/min) versus group D (70.3 ng/kg/min ANP)) is “more effective and acts for a longer period of time”. Moreover, in series [1] (i.v. infusion 40 or 80 ng/kg/min, end of ACh provocation), the “Other FEV and FEV % values, comparison of groups A-D” value is on record as “not significantly distinct”. Besides, in series [1] (infusion of 40 and 80 ng/kg/min), the “Effect on the ACh induced changes of the parameters of forced expiration relative to control group A” value was “clearly protective effects”. In addition, the “Effect of infusion on spontaneous respiration parameters after ACh provocation” value in series [2] was “without a significant effect”. In series [2] (setting [6]), the “Cdyn versus initial values” was “small, significant decrease”; the “PTP and RL versus initial values” was “slight, significant increase”. Moreover, the “Respiration frequency versus initial values” in series [2] (group C, 80 ng/kg/min, 5 minutes after beginning of infusion, before ACh) is on record as “slight, significant decrease”. For the same molecule, in series [4] (20 ng/kg/min, any time during or after the infusion), the “FEV1.0 versus pre values” is recorded as “did not show any significant effect”. The Flow-volume parameters entry in series [4] (20 ng/kg/min, p<0.05 after 10 and 30 minutes of infusion) is “increase of the MEF75 measurement value alone”. In addition, in series [4] (40 ng/kg/min), the “FEV1.0 versus initial values 30 minutes after completion of the infusion” value is listed as “still significantly different from the initial values”; the “Maxima of PEF, MEF75, MEF50, MEF25 under infusion versus results after Salbutamol inhalation” value is “not significantly different from the measurement results after Salbutamol inhalation, except for MEF50”; the “FEV1.0 versus pre values and 20 ng/kg/min group” value is “significant increase”; the “PEF, MEF75, MEF50 and MEF25” value is recorded as “increased during the infusion”. For the same molecule, the “VCmax versus pre values” in series [4] (40 ng/kg/min) is given as “significant increase”. Further, the “Time of maximum FEV1.0 values” in series [4] (40 ng/kg/min infusion) was 30 min. In series [4] (60 ng/kg/min), the “Maxima of PEF, MEF75, MEF50, MEF25 under infusion versus results after Salbutamol inhalation” value is reported as “not significantly different”; the “Maximum FEV1.0 effect versus values after inhalation of Salbutamol” value is reported as “no longer significantly different”; the “FEV1.0 versus pre values and 20 ng/kg/min group” value was “significant increase”; the “PEF, MEF75, MEF50 and MEF25” value was “increased during the infusion”. The “VCmax versus pre values” in series [4] (60 ng/kg/min) is “significant increase”. In addition, the “Time of maximum effect on FEV1.0” value in series [4] (60 ng/kg/min infusion) stood at 20 min. In series [4] (40 and 60 ng/kg/min), the “VCmax maxima versus results after Salbutamol inhalation” value was “did not show any significant differences”. Moreover, the “MEF50, difference between 40 and 60 ng/kg/min” value in series [4] (after 20 minutes of infusion) was “significant difference”. Further, the Broncho-dilatation result in series [4] (intravenous infusion of 40 and 60 ng/kg/min over 40 minutes, clinically stable bronchial asthma) was “did not result in a significant broncho-dilatation”. Moreover, the “Glomerular filtration rate, excretion of water, sodium and chloride” value in series [3] (intravenous application) was “increase the glomerular filtration rate, the excretion of water, sodium and chloride”.
